In patent US20220227773A1, “FUSED RING COMPOUND, PREPARATION METHOD THEREFOR AND USE THEREOF” (SHANGHAI INSTITUTE OF MATERIA MEDICA, CHINESE ACADEMY OF …, priority 2019, published 2022) one finds minimal effective dose, IC50 and inhibition data, which are given here for 37 compounds.

pIC50: −log10 of the molar value. Structures can show the parent of a compound that is named as a salt. Where two headings read alike, the source gives them in different places.

Experiment [1] concerns mice. Briefly: Forced swimming test (FST) in mice. Type of experiment: in vivo. The note with it: Mus musculus. How it is done:
3. In Vivo Drug Efficacy Test (Mouse Forced Swimming Model)
Experimental animals: C57BL/6 mice (Shanghai Xipuer-Bikai Experimental Animal Co., Ltd.), male, 6 weeks old, weighing 15-20 g. ICR mice (Shanghai Xipuer-Bikai Experimental Animal Co., Ltd.), male, 6 weeks old, weighing 20-25 g. All the ordered mice were fed in a standard environment for 2-3 weeks before test.
Forced Swimming Test (FST): in the forced swimming apparatus, the water level is 45 cm, and the water temperature is 25° C. Before the experiment, the mice were placed in the experimental room for 1 h for adapting to the environment. At the beginning of the experiment, the mice were placed in the apparatus for 6min, and the whole process was recorded with a camera. When analyzing the data, only the immobility time of the mice in the last 4 min was counted, and the result was expressed by mean±SD.
The results were analyzed by one-way analysis of variance. […] FST: Forced swimming test; TST: Tail suspension test.

For experiment [2], the target named is T1, hSERT (5-HTT) in HEK293-hSERT cells (Homo sapiens, UniProt P31645).
T1 construct: expressed in transfected cells; host or cells: HEK293
The experiment in a line: 5-HTT reuptake activity assay (fluorescence neurotransmitter transporter uptake kit). The class given is cell-based. Particulars: serotonin reuptake inhibition.

The target of experiment [3] is T2, human recombinant 5-HT3 receptor (Homo sapiens, UniProt P46098).
T2 construct: expressed in transfected cells; host or cells: HEK293 (membrane preparation)
T2 sequence (P46098 24-478): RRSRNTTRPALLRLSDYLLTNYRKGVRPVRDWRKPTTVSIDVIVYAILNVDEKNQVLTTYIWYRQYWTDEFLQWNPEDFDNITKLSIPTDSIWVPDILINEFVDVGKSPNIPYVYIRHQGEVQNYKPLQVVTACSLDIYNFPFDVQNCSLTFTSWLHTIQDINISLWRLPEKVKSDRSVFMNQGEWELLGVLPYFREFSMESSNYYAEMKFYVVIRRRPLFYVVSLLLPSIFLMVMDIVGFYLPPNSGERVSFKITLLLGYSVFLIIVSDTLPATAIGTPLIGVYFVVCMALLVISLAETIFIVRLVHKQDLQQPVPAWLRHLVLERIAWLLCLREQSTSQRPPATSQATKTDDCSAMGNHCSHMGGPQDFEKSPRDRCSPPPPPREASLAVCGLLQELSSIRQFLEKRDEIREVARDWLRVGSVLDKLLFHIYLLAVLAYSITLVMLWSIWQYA
Briefly: 5-HT3 receptor affinity assay (3H-BRL 43694 radioligand binding). The note with it: read-out: inhibition (%) at 1 μM.

Where [4] appears, read: po, FST, dose significantly reducing immobility time of mice, read-out: Effective dose.
Setting [5] is: ip, read-out: Effective dose (mg/kg).

As usually defined, the pIC50 is −log10 of the IC50, conventionally taken in molar units. A higher pIC50 goes with a small IC50. Usually inhibition stands for the drop in the measured response relative to a control, in per cent.

T1 sequence (P31645 whole entry): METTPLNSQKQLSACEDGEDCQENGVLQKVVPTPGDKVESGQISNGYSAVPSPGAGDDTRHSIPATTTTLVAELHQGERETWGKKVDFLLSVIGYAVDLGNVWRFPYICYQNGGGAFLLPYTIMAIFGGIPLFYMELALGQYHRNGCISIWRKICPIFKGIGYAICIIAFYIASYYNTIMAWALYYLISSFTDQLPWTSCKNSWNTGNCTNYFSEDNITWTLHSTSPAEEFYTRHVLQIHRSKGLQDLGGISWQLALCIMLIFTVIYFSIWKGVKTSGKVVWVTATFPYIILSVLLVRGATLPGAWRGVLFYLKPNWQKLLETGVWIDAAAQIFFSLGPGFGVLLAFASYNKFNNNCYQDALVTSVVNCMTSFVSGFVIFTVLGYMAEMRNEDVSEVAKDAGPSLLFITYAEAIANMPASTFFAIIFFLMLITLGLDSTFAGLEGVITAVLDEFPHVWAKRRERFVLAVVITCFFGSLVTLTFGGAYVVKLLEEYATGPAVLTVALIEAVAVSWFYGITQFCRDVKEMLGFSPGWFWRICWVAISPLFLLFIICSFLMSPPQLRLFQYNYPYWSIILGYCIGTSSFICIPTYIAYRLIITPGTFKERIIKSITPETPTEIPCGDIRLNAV

In the case of `CN(C)CCCC1(c2ccc(F)cc2)OCc2cc(C#N)ccc21` (stereo not shown) [Citalopram, reference compound], the minimal effective dose in experiment [1] (setting [4]) was 20 mg/kg.

On to `CNCC[C@H](Oc1cccc2ccccc12)c1cccs1` [Duloxetine, reference compound], for which the minimal effective dose in experiment [1] (po, read-out: Effective dose (mg/kg)) is 20 mg/kg.

For `c1ccc2cc(N3CC4CCNCCC4C3)ccc2c1` (stereo not shown) [Example 6, 2-(naphthalen-2-yl)decahydropyrrolo[3,4-d]azepine maleate], the pIC50 in experiment [2] was above 6.70.

`c1ccc2c(C3CC4CNCC4C3)cccc2c1` (stereo not shown) [Example 8, 5-(naphthalen-1-yl)octahydrocyclopenta[c]pyrrole hydrochloride] had a pIC50 in experiment [2] above 6.70.

On to `Clc1ccc(C2=CC3CNCC3C2)cc1Cl` (stereo not shown) [Example 9, 5-(3,4-chlorophenyl)-1,2,3,3a,4,6a-hexahydrocyclopenta[c]pyrrole hydrochloride], for which, in experiment [2], the pIC50 was above 6.70.

As for `O=C(O)/C=C\C(=O)O.c1cc2ccc(N3CC4CNCC4C3)cc2s1` (stereo not shown) [Example 19, 2-(Benzo[b]thiophen-6-yl)octahydropyrrolo[3,4-c]pyrrole maleate], in experiment [1] (setting [5]), the minimal effective dose was 10 mg/kg. The same compound showed a pIC50 in experiment [2] above 8.00.

As for `O=C(O)/C=C\C(=O)O.c1cc2cc(N3CC4CNCC4C3)ccc2o1` (stereo not shown) [Example 21, 2-(Benzofuran-5-yl)octahydropyrrolo[3,4-c]pyrrole maleate], the minimal effective dose in experiment [1] (setting [5]) came to 3 mg/kg. In experiment [2], this compound showed a pIC50 above 7.30.

Compound `c1ccc2c(N3CC4CNCC4C3)csc2c1` (stereo not shown) [Example 23, 2-(Benzo[b]thiophen-3-yl)octahydropyrrolo[3,4-c]pyrrole maleate] gave a pIC50 in experiment [2] above 6.70.

In the case of `CN1CC2CN(c3cccc4ccccc34)CC2C1` (stereo not shown) [Example 26, 2-methyl-5-(naphthalen-1-yl)octahydropyrrolo[3,4-c]pyrrole oxalate], the inhibition at 1 µM in experiment [3] (1 μM compound, 0.5 nM 3H-BRL 43694, HEK293 membranes) was determined as 76%. The compound also had a pIC50 in experiment [2] above 6.70.

Turning to `Clc1cccc(N2CC3CNCC3C2)c1Cl` (stereo not shown) [Example 27, 2-(2,3-dichlorophenyl)octahydropyrrolo[3,4-c]pyrrole maleate], in experiment [3], the inhibition at 1 µM worked out at 104%. In experiment [2], this compound had a pIC50 above 7.30.

As to `Fc1ccc2cc(N3CC4CNCC4C3)ccc2c1.O=C(O)/C=C\C(=O)O` (stereo not shown) [Example 29, 2-(6-fluoronaphthalen-2-yl)octahydropyrrolo[3,4-c]pyrrole maleate], the minimal effective dose in experiment [1] (setting [4]) turned out to be 5 mg/kg. The compound also showed a pIC50 in experiment [2] above 8.00.

For the compound `CN1CC2CN(c3ccc4cc(F)ccc4c3)CC2C1.O=C(O)/C=C\C(=O)O` (stereo not shown) [Example 30, 2-(6-fluoronaphthalen-2-yl)-5-methyloctahydropyrrolo[3,4-c]pyrrole maleate], the minimal effective dose in experiment [1] (setting [4]) came to 20 mg/kg. In experiment [2], this compound gave a pIC50 above 8.00.

For the compound `Clc1ccc(N2CC3CCNCCC3C2)cc1Cl` (stereo not shown) [Example 42, 2-(3,4-dichlorophenyl)decahydropyrrolo[3,4-d]azepine maleate], in experiment [3], the inhibition at 1 µM came out at 103%. Also, the pIC50 in experiment [2] was above 8.00.

In the case of `c1cc(N2CC3CCNCCC3C2)c2sccc2c1` (stereo not shown) [Example 43, 2-(Benzo[b]thiophen-7-yl)decahydropyrrolo[3,4-d]azepine maleate], in experiment [2], the pIC50 was above 7.30.

As to `C1=C(c2cccc3ccsc23)CC2CNCC12` (stereo not shown) [Example 48, 5-(Benzothiophen-7-yl)-1,2,3,3a,4,6a-hexahydrocyclopenta[c]pyrrole hydrochloride], in experiment [2], the pIC50 was above 7.30.

On to `C1=C(c2cc3ccccc3s2)CC2CNCC12` (stereo not shown) [Example 51, 5-(Benzothiophen-2-yl)-1,2,3,3a,4,6a-hexahydrocyclopenta[c]pyrrole hydrochloride], for which the pIC50 in experiment [2] is above 7.30.

In the case of `C1=C(c2cc3ccccc3o2)CC2CNCC12` (stereo not shown) [Example 52, 5-(Benzofuran-2-yl)-1,2,3,3a,4,6a-hexahydrocyclopenta[c]pyrrole hydrochloride], in experiment [2], the pIC50 was above 6.70.

Consider `C1=C(c2ccc3ccccc3c2)CC2CNCC12` (stereo not shown) [Example 54, 5-(naphthalen-2-yl)-1,2,3,3a,4,6a-hexahydrocyclopenta[c]pyrrole hydrochloride], for which, in experiment [2], the pIC50 was above 7.30.

Compound `C1=C(c2cccc3ccccc23)CC2CNCC12` (stereo not shown) [Example 56, 5-(naphthalen-1-yl)-1,2,3,3a,4,6a-hexahydrocyclopenta[c]pyrrole dihydrochloride] had a pIC50 in experiment [2] above 7.30.

With `CN1CC2C=C(c3ccc4ccccc4c3)CC2C1` (stereo not shown) [Example 57, 2-methyl-5-(naphthalen-2-yl)-1,2,3,3a,4,6a-hexahydrocyclopenta[c]pyrrole], the pIC50 in experiment [2] was above 7.30.

As for `CN1CC2C=C(c3cc4ccccc4o3)CC2C1` (stereo not shown) [Example 59, 5-(Benzofuran-2-yl)-2-methyl-1,2,3,3a,4,6a-hexahydrocyclopenta[c]pyrrole hydrochloride], the pIC50 in experiment [2] was above 7.30.

`CN1CC2C=C(c3cc4ccccc4s3)CC2C1` (stereo not shown) [Example 61, 5-(Benzothiophen-2-yl)-2-methyl-1,2,3,3a,4,6a-hexahydrocyclopenta[c]pyrrole hydrochloride]: the pIC50 in experiment [2] was above 7.30.

Turning to `CN1CC2CC(c3cc4ccccc4s3)CC2C1` (stereo not shown) [Example 62, 5-(benzothiophen-2-yl)-2-methyl-octahydrocyclopenta[c]pyrrole hydrochloride], in experiment [2], the pIC50 is above 7.30.

In turn, `c1cc2cc(N3CCC4CNCC43)ccc2s1` (stereo not shown) [Example 64, 1-(Benzothiophen-5-yl)octahydropyrrolo[3,4-b]pyrrole maleate] gave a pIC50 in experiment [2] above 7.30.

`CN1CC2CCN(c3ccc4sccc4c3)C2C1` (stereo not shown) [Example 65, 1-(Benzothiophen-5-yl)-5-methyloctahydropyrrolo[3,4-b]pyrrole oxalate] gave a pIC50 in experiment [2] above 7.30.

`Cc1cccc(N2CC3CNCC3C2)c1C` (stereo not shown) [Example 66, 2-(2,3-dimethylphenyl)octahydropyrrolo[3,4-c]pyrrole maleate] gave a pIC50 in experiment [2] above 7.30.

With `Cc1cccc(N2CC3CN(C)CC3C2)c1C` (stereo not shown) [Example 67, 2-(2,3-dimethylphenyl)-5-methyloctahydropyrrolo[3,4-c]pyrrole oxalate], the pIC50 in experiment [2] is above 6.70.

The compound `Fc1cc(N2CC3CNCC3C2)cc2sccc12` (stereo not shown) [Example 68, 2-(4-fluorobenzo[b]thiophen-6-yl)octahydropyrrolo[3,4-c]pyrrole dihydrochloride] gave a pIC50 in experiment [2] above 6.70.

For `Fc1cc(N2CC3CNCC3C2)c2ccsc2c1` (stereo not shown) [Example 69, 2-(6-fluorobenzothiophen-4-yl)octahydropyrrolo[3,4-c]pyrrole dihydrochloride], in experiment [1] (setting [5]), the minimal effective dose amounted to 10 mg/kg. Moreover, the pIC50 in experiment [2] was above 6.70.

`CN1CC2CN(c3cc(F)cc4sccc34)CC2C1` (stereo not shown) [Example 70, 2-(6-fluorobenzothiophen-4-yl)-5-methyloctahydropyrrolo[3,4-c]pyrrole oxalate] showed a pIC50 in experiment [2] above 7.30.

Regarding `CN1CC2C=C(c3cccc4ccccc34)CC2C1` (stereo not shown) [Example 71, 2-methyl-5-(naphthalen-1-yl)-1,2,3,3a,4,6a-hexahydrocyclopenta[c]pyrrole], the pIC50 in experiment [2] is above 7.30.

The compound `CN1CC2CN(c3c(F)cc4ccccc4c3F)CC2C1` (stereo not shown) [Example 75, 2-(1,3-difluoronaphthalen-2-yl)-5-methyloctahydropyrrolo[3,4-c]pyrrole dihydrochloride] gave a pIC50 in experiment [2] above 7.00.

Consider `CN1CC2CN(c3cc4ccccc4cc3F)CC2C1` (stereo not shown) [Example 76, 2-(3-fluoronaphthalen-2-yl)-5-methyloctahydropyrrolo [3,4-c]pyrrole dihydrochloride], for which the pIC50 in experiment [2] is above 7.30.

On to `CN1CC2CN(c3ccc(C(F)(F)F)cc3)CC2C1.O=C(O)C(=O)O` (stereo not shown) [Example 81, 2-methyl-5-(4-(trifluoromethyl)phenyl)octahydropyrrolo[3,4-c]pyrrole oxalate], for which the minimal effective dose in experiment [1] (setting [5]) came out at 10 mg/kg. In addition, the pIC50 in experiment [2] was above 7.30.

In turn, `Clc1ccc(N2CCC3CNCC3CC2)c(Cl)c1` (stereo not shown) [Example 90, 6-(2,4-dichlorophenyl)decahydropyrrolo[3,4-d]azepine hydrochloride] showed a pIC50 in experiment [2] above 7.30.

With `CN1CC2CN(c3cccc4c3CCC(=O)N4)CC2C1` (stereo not shown) [Example 93, 5-(5-methylhexahydropyrrolo[3,4-c]pyrrol-2(1H)-yl)-3,4-dihydroquinolin-2(1H)-one dihydrochloride], the pIC50 in experiment [2] is above 6.70.

For `CN1[C@@H]2CC[C@H]1C[C@@H](OC(=O)c1cc(Cl)cc(Cl)c1)C2` [MDL72222, reference compound], in experiment [3], the inhibition at 1 µM came to 93%.
